Results from US20180098993A1, “USE OF (2R, 6R)-HYDROXYNORKETAMINE, (S)-DEHYDRON[…] OTHER STER[…] AND HYDROXYLATED METABOLITES OF (R,S)- KETAMINE IN THE TREATMENT OF DEPRESSION AND NEUROPATHIC PAIN” (THE UNITED STATES OF AMERICA, AS REPRESENTED BY THE …, priority 2011, published 2018).
Where a name gives a salt, the structure may show the parent alone. Read-outs that look alike come from different tables or passages of the source.

Assays:
NMDA receptor = NMDA receptor inhibition; type: binding; settings: for Ki: read-out: NMDAR Ki
Method: Certain compounds of Formula I discussed in this disclosure were tested in the above serine racemase assay, for NMDA receptor inhibition and inhibition of the nicotinic acetylcholine receptor subtype α7. The assay for nicotinic acetylcholorine receptor subtype α7 is given below in Example 6.

α7 nAChR = molecular target: T1, α7 nAChR (Rattus norvegicus, UniProt Q05941); assay: whole-cell patch clamp, currents evoked by acetylcholine in KXα7R1; type: cell-based; settings: for current evoked by 280 micromolar acetylcholine, normalized to current elicited by ACh alone (Mean): -80 mV, n=4; for inhibition at 0.1 µM: read-out: inhibition (α7) at 100 nM
T1 construct: expressed in transfected cells; host or cells: KXα7R1
T1 sequence (Q05941 23-502): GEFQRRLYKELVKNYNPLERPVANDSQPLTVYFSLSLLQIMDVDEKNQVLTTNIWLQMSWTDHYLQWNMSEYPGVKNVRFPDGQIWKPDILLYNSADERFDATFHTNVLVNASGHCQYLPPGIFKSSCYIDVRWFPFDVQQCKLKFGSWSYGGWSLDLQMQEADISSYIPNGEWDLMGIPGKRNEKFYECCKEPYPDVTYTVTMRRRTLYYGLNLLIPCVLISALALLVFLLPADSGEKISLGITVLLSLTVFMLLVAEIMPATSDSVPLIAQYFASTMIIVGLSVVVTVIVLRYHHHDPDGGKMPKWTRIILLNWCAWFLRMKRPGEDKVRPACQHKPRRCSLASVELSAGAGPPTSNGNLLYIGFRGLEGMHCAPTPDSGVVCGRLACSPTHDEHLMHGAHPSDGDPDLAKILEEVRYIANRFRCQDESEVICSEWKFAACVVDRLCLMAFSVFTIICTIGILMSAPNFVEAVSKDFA
Text: (§1) Without wishing to be bound to any particular theory applicants believe certain compounds of Formula I exert activity via serine racemase inhibition. Since nicotinic acetylcholine receptors (nAChR) have been validated as a target in analgesia applicants investigated the activity of DHNK at two nAChR subtypes, α7 and α3β4 nAChR. Patch-clamp technique in a whole-cell configuration was used to examine functional activity of ketamine, norketamine, DHNK and HNK metabolites at the α7 and α3β4 neuronal […] receptors (nAChRs). The activity of these compounds at the α3β4 nAChR was investigated using nicotine-stimulated 86Rb+ efflux assays in HEK293 cells expressing the α3β4 nAChR.
Since nicotinic acetylcholine receptors (nAChR) have been validated as a target in analgesia we have investigated the activity of DHNK ([…]) at two nAChR subtypes, α7 and α3β4 nAChR. The patch clamp in a whole cell configuration was used to examine functional activity of ketamine, norketamine, and the DHNK and HNK metabolites on currents evoked by 280 micromolar acetylcholine in the KXα7R1. The data was obtained at −80 mV and normalized to the amplitude of current elicited by ACh alone, n=4.

[1] = plasma half-life and oral bioavailability (statement); settings: in vivo
serine racemase [2] = molecular target: T2, serine racemase (Homo sapiens, UniProt Q9GZT4); assay: serine racemase inhibition assay (intracellular D-serine by CE-LIF); type: cell-based; settings: 36 h incubation, cell line not stated
T2 sequence (Q9GZT4 1-340): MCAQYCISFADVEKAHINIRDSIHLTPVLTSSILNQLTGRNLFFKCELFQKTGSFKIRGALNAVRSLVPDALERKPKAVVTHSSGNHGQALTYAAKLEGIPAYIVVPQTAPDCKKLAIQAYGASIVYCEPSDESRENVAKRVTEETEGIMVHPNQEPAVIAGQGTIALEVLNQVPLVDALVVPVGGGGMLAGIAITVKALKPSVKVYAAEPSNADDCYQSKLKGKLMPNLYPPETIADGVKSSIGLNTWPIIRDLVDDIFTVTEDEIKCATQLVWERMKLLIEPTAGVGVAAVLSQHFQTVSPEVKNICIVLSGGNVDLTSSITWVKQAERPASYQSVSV
Text: The cell lines selected for this study were PC-12 pheochromocytoma derived from rat adrenal medulla, human-derived 1321N1 astrocytoma, rat-derived C6 glioblastoma, and human-derived HepG2 hepatocellular carcinoma. All of the cell lines were obtained from ATCC (Manassas, Va., USA). The PC12 cells were maintained in RPMI7 1640 with L-Gln supplemented with 10% horse serum (heat inactivated), 5% FBS, 1% sodium pyruvate solution, 1% HEPES buffer and 1% penicillin/streptomycin solution. The 1321N1 and C6 cells were maintained in DMEM with L-Gln supplemented with 10% FBS and 1% penicillin/streptomycin solution. The HepG2 cells were maintained in E-MEM supplemented with 1% L-Gln, 10% FBS, 1% sodium pyruvate solution and 1% penicillin/streptomycin solution.
(§2) Instrumentation: The CE separations were performed with a P/ACE MDQ system equipped with a laser-induced fluorescence detector (Beckman Instruments, Fullerton, Calif., USA). The laser-induced fluorescence detection was carried out with excitation at 488 nm and emission at 520 nm. […] Quantification was accomplished using area ratios calculated for FITC-D-Ser with FITCD-Arg as the internal standard, where the concentration of the internal standard was set at 5 μM. […]

serine racemase [3] = molecular target: T2, serine racemase; assay: intracellular D-serine concentration in 1321N1 astrocytoma cells; type: cell-based; design: host or cells: 1321N1 astrocytoma; settings: read-out: IC50, reduction of intracellular D-serine
Text: Applicants have determined that ketamine inhibits NMDA (N-methyl-D-aspartic acid) receptors by inhibiting serine racemase and thereby limiting the concentration of D-serine available to interact with the NMDA receptor. An indirect inhibition of SR activity by ketamine or ketamine metabolites through the inhibition of nAChR activity was hypothesized. PC12 cells were chosen to test the hypothesis since the cell line expresses active SR and α7 and α3β4 nAChRs.
The cell lines selected for this study were PC-12 pheochromocytoma derived from rat adrenal medulla, human-derived 1321N1 astrocytoma, rat-derived C6 glioblastoma, and human-derived HepG2 hepatocellular carcinoma. All of the cell lines were obtained from ATCC (Manassas, Va., USA). […]
as §2

α3β4 nAChR = molecular target: T3, α3β4 nAChR (Rattus norvegicus, UniProt P04757+P12392); assay: nicotine-stimulated 86Rb+ efflux in HEK293 cells expressing α3β4 nAChR; whole-cell patch clamp; type: cell-based
T3 construct: expressed in transfected cells; host or cells: HEK293
T3 sequence (P04757 26-499): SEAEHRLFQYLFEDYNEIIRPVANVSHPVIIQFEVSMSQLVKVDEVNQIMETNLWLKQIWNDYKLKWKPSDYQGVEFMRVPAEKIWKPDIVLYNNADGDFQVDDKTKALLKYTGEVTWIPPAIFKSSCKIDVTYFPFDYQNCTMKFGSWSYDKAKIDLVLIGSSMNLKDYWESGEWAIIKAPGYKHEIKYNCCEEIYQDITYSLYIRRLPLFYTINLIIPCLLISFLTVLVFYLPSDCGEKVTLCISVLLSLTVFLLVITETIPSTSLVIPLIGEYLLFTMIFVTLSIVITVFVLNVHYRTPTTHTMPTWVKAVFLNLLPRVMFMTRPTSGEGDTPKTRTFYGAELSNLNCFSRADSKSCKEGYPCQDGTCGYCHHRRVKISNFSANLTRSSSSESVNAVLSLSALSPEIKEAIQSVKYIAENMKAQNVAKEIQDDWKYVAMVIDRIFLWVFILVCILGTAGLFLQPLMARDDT
T3 sequence (P12392 21-495): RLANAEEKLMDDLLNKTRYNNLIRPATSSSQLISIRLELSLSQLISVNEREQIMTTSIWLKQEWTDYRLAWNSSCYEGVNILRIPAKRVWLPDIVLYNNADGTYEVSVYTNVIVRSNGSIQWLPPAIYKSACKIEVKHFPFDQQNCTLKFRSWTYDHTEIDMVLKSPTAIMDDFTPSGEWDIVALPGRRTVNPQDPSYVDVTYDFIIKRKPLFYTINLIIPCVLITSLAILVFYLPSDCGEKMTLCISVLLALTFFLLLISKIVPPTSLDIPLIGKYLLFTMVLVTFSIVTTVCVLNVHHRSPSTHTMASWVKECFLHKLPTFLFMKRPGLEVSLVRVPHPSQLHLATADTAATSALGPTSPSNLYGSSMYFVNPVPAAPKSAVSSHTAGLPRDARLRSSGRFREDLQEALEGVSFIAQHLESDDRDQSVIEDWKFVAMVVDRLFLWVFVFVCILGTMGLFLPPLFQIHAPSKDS
Text: as §1

Row | Compound | Ki (NMDA receptor) | current evoked by 280 micromolar acetylcholine, normalized to current elicited by ACh alone (Mean) (α7 nAChR; 100 nM) | current evoked by 280 micromolar acetylcholine, normalized to current elicited by ACh alone (Mean) (α7 nAChR; 1000 nM) | inhibition at 0.1 µM (α7 nAChR) | activity at α7 nAChR (α7 nAChR) | also measured
1 | N[C@]1(c2ccccc2Cl)CCC[C@H](O)C1=O (stereo in doubt) [(2R,6R)-HNK, (2R,6R)-6-Hydroxynorketamine Hydrochloride] | > 100 µM | 0.489 | 0.354 | 51% | – | –
2 | N[C@]1(c2ccccc2Cl)CCC=CC1=O [(S)-DHNK, (S)-1-amino-2′-chloro-5,6-dihydro-[1,1′-biphenyl]-2(1H)-one] | 39 µM | – | – | – | – | –
3 | N[C@@]1(c2ccccc2Cl)CCC=CC1=O [(R)-DHNK, (R)-5,6-dehydroxynorketamine hydrochloride] | 74.5 µM | – | – | – | – | –
4 | N[C@@]1(c2ccccc2Cl)CCC[C@@H](O)C1=O [(2S,6S)-HNK, (2S,6S)-6-Hydroxynorketamine Hydrochloride] | 21.2 µM | 0.461 | 0.361 | 54% | – | plasma half-life [1]: long; oral bioavailability [1]: orally bioavailable
5 | N[C@@]1(c2ccccc2Cl)CCCCC1=O [(R)-norKet, (R)-norketamine, reference compound] | 26.5 µM | – | – | – | – | IC50 (serine racemase [2]): 0.04 to 0.08 µM
6 | NC1(c2ccccc2Cl)CCCCC1=O (racemic) [(R,S)-norKet, norketamine] | – | 0.548 | 0.287 | 46% | inactive | –
7 | NC1(c2ccccc2Cl)CCC=CC1=O (racemic) [(R,S)-DHNK, (R,S)-dehydronorketamine] | – | 0.407 | 0.205 | – | potent inhibitor | IC50 (serine racemase [3]): 0.0164 µM; plasma half-life [1]: long; oral bioavailability [1]: orally bioavailable; activity at α3β4 nAChR (α3β4 nAChR): inactive; IC50 (α7 nAChR; read-out: IC50 (α7)): ~0.05 µM; IC50 (α7 nAChR; read-out: IC50 at α7 nAChR): 0.05 µM
8 | CNC1(c2ccccc2Cl)CCCCC1=O (centres unmarked) [ketamine] | – | – | – | – | inactive | IC50 (α3β4 nAChR): 10 µM
9 | N[C@]1(c2ccccc2Cl)CCCCC1=O [(S)-norKet, (S)-norketamine, reference compound] | 2.25 ± 0.22 µM | – | – | – | – | IC50 (serine racemase [2]): 0.05 to 0.12 µM
10 | N[C@@]1(c2ccccc2Cl)CCC[C@@H](O)C1=O [(2R,6R; 2S,6S)-hydroxynorketamine] | – | – | – | – | – | activity at the NMDA receptor (NMDA receptor): not active
